Laboratory results published in PubChem BioAssay AID2060508 (Molecular Pharmacology Branch, DTP, NCI, 2025).

These compounds were tested on 454973-116-R2-J3-PDC spheroids, viability, % test/control (assay: Anticancer human tumor 454973-116-R2-J3-PDC patient-derived pancreatic carcinoma cell line growth inhibition [GQUAD]). Settings: second compound 1 µM; first compound 0.1 µM; hits give low values; spheroids with HUVEC and MSC.
Procedure, shortened: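 Tumor cells were grown as complex spheroids with HUVEC endothelial cells and mesenchymal stem cells as stroma. G-quadruplex stabilizers were combined with targeted agents over half-log dilutions from near the clinical Cmax, or from 10 microM.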
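Further: spheroids exposed to compounds for seven days; 100% = DMSO vehicle control viability.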

Structure (SMILES)	viability, T/C [%]
CC(C)(O)C1CCC(Nc2ccc3ncc(-c4cccc(C(F)(F)F)c4)n3n2)CC1 (stereo unspecified) + Cc1cnc(CNC(=O)c2c(=O)c3ccc(N4CCCN(C)CC4)nc3n3c2sc2ccccc23)cn1	65.6
O=C(NO)c1cnc(N2CCN(S(=O)(=O)c3ccc4ccccc4c3)CC2)nc1 + Cc1cnc(CNC(=O)c2c(=O)c3ccc(N4CCCN(C)CC4)nc3n3c2sc2ccccc23)cn1	64.1

Same assay, conditions: second compound 1 µM; first compound 0.316 µM; hits give low values; spheroids with HUVEC and MSC

Structure (SMILES)	viability, T/C [%]
C#Cc1c(F)ccc2cc(O)cc(-c3ncc4c(N5CC6CCC(C5)N6)nc(OCC56CCCN5CC(F)C6)nc4c3F)c12 (stereo unspecified) + Cc1cnc(CNC(=O)c2c(=O)c3ccc(N4CCCN(C)CC4)nc3n3c2sc2ccccc23)cn1	19
C=CCn1c(=O)c2cnc(Nc3ccc(N4CCN(C)CC4)cc3)nc2n1-c1cccc(C(C)(C)O)n1 + Cc1cnc(CNC(=O)c2c(=O)c3ccc(N4CCCN(C)CC4)nc3n3c2sc2ccccc23)cn1	48.2
CC(C)(O)C1CCC(Nc2ccc3ncc(-c4cccc(C(F)(F)F)c4)n3n2)CC1 (stereo unspecified) + Cc1cnc(CNC(=O)c2c(=O)c3ccc(N4CCCN(C)CC4)nc3n3c2sc2ccccc23)cn1	65.1
Cc1[nH]c2ccccc2c1CCNCc1ccc(/C=C/C(=O)NO)cc1 + Cc1cnc(CNC(=O)c2c(=O)c3ccc(N4CCCN(C)CC4)nc3n3c2sc2ccccc23)cn1	0.21
O=C(NO)c1cnc(N2CCN(S(=O)(=O)c3ccc4ccccc4c3)CC2)nc1 + Cc1cnc(CNC(=O)c2c(=O)c3ccc(N4CCCN(C)CC4)nc3n3c2sc2ccccc23)cn1	21.8

Same assay, conditions: second compound 1 µM; first compound 1 µM; hits give low values; spheroids with HUVEC and MSC

Structure (SMILES)	viability, T/C [%]
C#Cc1c(F)ccc2cc(O)cc(-c3ncc4c(N5CC6CCC(C5)N6)nc(OCC56CCCN5CC(F)C6)nc4c3F)c12 (stereo unspecified) + Cc1cnc(CNC(=O)c2c(=O)c3ccc(N4CCCN(C)CC4)nc3n3c2sc2ccccc23)cn1	16.5
C=CCn1c(=O)c2cnc(Nc3ccc(N4CCN(C)CC4)cc3)nc2n1-c1cccc(C(C)(C)O)n1 + Cc1cnc(CNC(=O)c2c(=O)c3ccc(N4CCCN(C)CC4)nc3n3c2sc2ccccc23)cn1	22.4
CC(C)(O)C1CCC(Nc2ccc3ncc(-c4cccc(C(F)(F)F)c4)n3n2)CC1 (stereo unspecified) + Cc1cnc(CNC(=O)c2c(=O)c3ccc(N4CCCN(C)CC4)nc3n3c2sc2ccccc23)cn1	66.5
O=C(NO)c1cnc(N2CCN(S(=O)(=O)c3ccc4ccccc4c3)CC2)nc1 + Cc1cnc(CNC(=O)c2c(=O)c3ccc(N4CCCN(C)CC4)nc3n3c2sc2ccccc23)cn1	0.41

Same assay, conditions: second compound 1 µM; first compound 3.16 µM; hits give low values; spheroids with HUVEC and MSC

Structure (SMILES)	viability, T/C [%]
C#Cc1c(F)ccc2cc(O)cc(-c3ncc4c(N5CC6CCC(C5)N6)nc(OCC56CCCN5CC(F)C6)nc4c3F)c12 (stereo unspecified) + Cc1cnc(CNC(=O)c2c(=O)c3ccc(N4CCCN(C)CC4)nc3n3c2sc2ccccc23)cn1	13.2
C=CCn1c(=O)c2cnc(Nc3ccc(N4CCN(C)CC4)cc3)nc2n1-c1cccc(C(C)(C)O)n1 + Cc1cnc(CNC(=O)c2c(=O)c3ccc(N4CCCN(C)CC4)nc3n3c2sc2ccccc23)cn1	13.7
CC(C)(O)C1CCC(Nc2ccc3ncc(-c4cccc(C(F)(F)F)c4)n3n2)CC1 (stereo unspecified) + Cc1cnc(CNC(=O)c2c(=O)c3ccc(N4CCCN(C)CC4)nc3n3c2sc2ccccc23)cn1	31.9
O=C(NO)c1cnc(N2CCN(S(=O)(=O)c3ccc4ccccc4c3)CC2)nc1 + Cc1cnc(CNC(=O)c2c(=O)c3ccc(N4CCCN(C)CC4)nc3n3c2sc2ccccc23)cn1	0.09

Same assay, conditions: second compound 1 µM; first compound 10 µM; hits give low values; spheroids with HUVEC and MSC

Structure (SMILES)	viability, T/C [%]
C#Cc1c(F)ccc2cc(O)cc(-c3ncc4c(N5CC6CCC(C5)N6)nc(OCC56CCCN5CC(F)C6)nc4c3F)c12 (stereo unspecified) + Cc1cnc(CNC(=O)c2c(=O)c3ccc(N4CCCN(C)CC4)nc3n3c2sc2ccccc23)cn1	10.7
C=CCn1c(=O)c2cnc(Nc3ccc(N4CCN(C)CC4)cc3)nc2n1-c1cccc(C(C)(C)O)n1 + Cc1cnc(CNC(=O)c2c(=O)c3ccc(N4CCCN(C)CC4)nc3n3c2sc2ccccc23)cn1	13.6
CC(C)(O)C1CCC(Nc2ccc3ncc(-c4cccc(C(F)(F)F)c4)n3n2)CC1 (stereo unspecified) + Cc1cnc(CNC(=O)c2c(=O)c3ccc(N4CCCN(C)CC4)nc3n3c2sc2ccccc23)cn1	32.5
O=C(NO)c1cnc(N2CCN(S(=O)(=O)c3ccc4ccccc4c3)CC2)nc1 + Cc1cnc(CNC(=O)c2c(=O)c3ccc(N4CCCN(C)CC4)nc3n3c2sc2ccccc23)cn1	0.13

Same assay, conditions: second compound 3.16 µM; first compound 0.000999 µM; hits give low values; spheroids with HUVEC and MSC

Structure (SMILES)	viability, T/C [%]
Cc1[nH]c2ccccc2c1CCNCc1ccc(/C=C/C(=O)NO)cc1 + Cc1cnc(CNC(=O)c2c(=O)c3ccc(N4CCCN(C)CC4)nc3n3c2sc2ccccc23)cn1	56.4

Same assay, conditions: second compound 3.16 µM; first compound 0.00316 µM; hits give low values; spheroids with HUVEC and MSC

Structure (SMILES)	viability, T/C [%]
Cc1[nH]c2ccccc2c1CCNCc1ccc(/C=C/C(=O)NO)cc1 + Cc1cnc(CNC(=O)c2c(=O)c3ccc(N4CCCN(C)CC4)nc3n3c2sc2ccccc23)cn1	64.3

Same assay, conditions: second compound 3.16 µM; first compound 0.00999 µM; hits give low values; spheroids with HUVEC and MSC

Structure (SMILES)	viability, T/C [%]
Cc1[nH]c2ccccc2c1CCNCc1ccc(/C=C/C(=O)NO)cc1 + Cc1cnc(CNC(=O)c2c(=O)c3ccc(N4CCCN(C)CC4)nc3n3c2sc2ccccc23)cn1	59.1

Same assay, conditions: second compound 3.16 µM; first compound 0.0316 µM; hits give low values; spheroids with HUVEC and MSC

Structure (SMILES)	viability, T/C [%]
C#Cc1c(F)ccc2cc(O)cc(-c3ncc4c(N5CC6CCC(C5)N6)nc(OCC56CCCN5CC(F)C6)nc4c3F)c12 (stereo unspecified) + Cc1cnc(CNC(=O)c2c(=O)c3ccc(N4CCCN(C)CC4)nc3n3c2sc2ccccc23)cn1	36.5
C=CCn1c(=O)c2cnc(Nc3ccc(N4CCN(C)CC4)cc3)nc2n1-c1cccc(C(C)(C)O)n1 + Cc1cnc(CNC(=O)c2c(=O)c3ccc(N4CCCN(C)CC4)nc3n3c2sc2ccccc23)cn1	58.3
CC(C)(O)C1CCC(Nc2ccc3ncc(-c4cccc(C(F)(F)F)c4)n3n2)CC1 (stereo unspecified) + Cc1cnc(CNC(=O)c2c(=O)c3ccc(N4CCCN(C)CC4)nc3n3c2sc2ccccc23)cn1	66.9
Cc1[nH]c2ccccc2c1CCNCc1ccc(/C=C/C(=O)NO)cc1 + Cc1cnc(CNC(=O)c2c(=O)c3ccc(N4CCCN(C)CC4)nc3n3c2sc2ccccc23)cn1	52.4
